Patent US7851653B2, “Method of creating a solvent-free polymeric silicon-containing quaternary ammonium antimicrobial agent having superior sustained antimicrobial properties” (priority 2005, dated 2010)

Key:
E. coli [1] = assay: ASTM E 2149-01 antimicrobial activity of immobilized agents under dynamic contact conditions (dynamic shake flask test); type: cell-based
Protocol: (§1) Antimicrobial testing of the cast PVC films of Example 4 was carried out essentially as described in the ASTM designation E 2149-01 entitled, “Standard test Method for Determining the Antimicrobial Activity of Immobilized Antimicrobial Agents under Dynamic Contact Conditions.” This test is designed to evaluate the antimicrobial properties of materials, which contain active agents that are non-leaching. The method is described briefly below.
E. coli was grown overnight in rich media in an incubator-shaker at 37° C. while shaking at 300 rpm. After 18 hours of incubation, the bacteria were removed from the incubator and the optical density at 660 nm was measured. The culture was diluted until the optical density corresponds to a bacterial concentration of between 1×10^8 and 3×10^8 Colony Forming Units (CFU) per milliliter. The bacteria were further diluted in phosphate buffer (0.3 mM KPO4 at pH 7.2) such that the working concentration was 1×10^6 to 3×10^6 CFU/mL. Test specimens were added to sterile 15 mL test tubes followed by the addition of 3 mL of the bacterial solution. An aliquot was immediately removed from the flask, serially diluted, and used to inoculate Petri plates containing nutrient agar. The plates were incubated overnight and the concentration of bacteria (CFU/mL) was thus determined. This represents the Time 0 (T0) control. […]

[2] = carbon tetrachloride (CTC) activity of activated carbon, ASTM Method D3467; type: physicochemical
Protocol: Determining whether the impregnation of the carbon with antimicrobial agents had any adverse effect on the adsorption properties of the carbon was accomplished by testing the carbon tetrachloride (CTC) activity of the carbon prior to impregnation and following impregnation with the monomer and polymer forms of the antimicrobial agent. The CTC activity testing was performed by a vendor in accordance with ASTM Method […].

E. coli [3] = assay: ASTM E2149-01 on treated cotton swatches before and after accelerated laundering AATCC 61-1996; type: cell-based
Protocol: as §1
E. coli was grown overnight in rich media in an incubator-shaker at 37° C. while shaking at 300 rpm. After 18 hours of incubation, the bacteria were removed from the incubator and the optical density at 660 nm was measured. The culture was diluted until the optical density corresponds to a bacterial concentration of between 1×10^8 and 3×10^8 Colony Forming Units (CFU) per milliliter. The bacteria were further diluted in phosphate buffer (0.3 mM KPO4 at pH 7.2) such that the working concentration was 1×10^6 to 3×10^6 CFU/mL. Test specimens were added to sterile 15 mL test tubes followed by the addition of 3 mL of the bacterial solution. An aliquot was immediately removed from the flask, serially diluted, and used to inoculate Petri plates containing nutrient agar. The plates were incubated overnight and the concentration of bacteria (CFU/mL) was thus determined. This represents the Time 0 (T0) control. The tube containing the sample was placed in a shaking incubator at 37° C. and 300 rpm for one hour, at which time another aliquot was taken and tested as above. This is the treated sample (TF). All tests were controlled by the inclusion of a tube that contained an untreated sample and a flask with no sample but with bacteria. […] Log kill is a standard method to establish the ability of antimicrobial agents to destroy microorganisms. A log kill of 5.0 means that 100,000 microorganisms were destroyed on contact with the treated surface. A log kill of 6.0 establishes that 1,000,000 microorganisms were destroyed on contact with the treated surface. A log kill in excess of 5.0 is typically interpreted as an exceptionally active antimicrobial agent.
Unbleached cotton fabric was treated with various concentration levels of both monomeric 3-(trimethoxysilyl) propyldimethyloctadecyl ammonium chloride and the homopolymer of 3-(trimethoxysilyl) propyldimethyloctadecyl ammonium chloride as prepared in Example 2. In all cases 2 inch (5.1 cm) by 2 inch (5.1 cm) swatches of fabric were treated by immersing them in an aqueous solution containing the respective concentration of monomeric or polymeric 3-(trimethoxysilyl) propyldimethyloctadecyl ammonium chloride for a minimum of ten minutes. The swatches were subsequently removed from the aqueous solution and air-dried overnight. The swatches were analyzed for antimicrobial activity using ASTM E2149-01 as described in Example 5 followed by an accelerated laundering test according to AATCC 61-1996, which simulates multiple laundering effects. The swatches were again analyzed for antimicrobial activity according to ASTM E2149-01 to determine the effect of laundering on the antimicrobial activity. Antimicrobial activity is reported as percent reduction in E. coli concentration.

E. coli [4] = assay: minimum inhibitory concentration (MIC) using E. coli; type: cell-based; conditions: Escherichia coli
Protocol: Two volumes of 0.01N NH4OH in water were added slowly to one volume of a 42% by weight solution of 3-(trimethoxysilyl) propyldimethyloctadecyl ammonium chloride in methanol while stirring at room temperature. After ten minutes an additional two volumes of 0.01N NH4OH were added, stirring continued for an additional ten minutes. An additional five volumes of 0.1N NH4OH were added and stirred for an additional ten minutes. The methanol and NH4OH were removed by evaporation and the resulting polymer concentrated to 5% (wt/wt) in a rotary evaporator. The solution was dried to a methanol-free dry powder. Infrared and NMR spectroscopy confirmed the resultant powder was a homopolymer of (trimethoxysilyl) propyldimethyloctadecyl ammonium chloride.

Compound: CCCCCCCCCCCCCCCCCC[N+](C)(C)CCC[Si](OC)(OC)OC.[Cl-] [Monomer, 3-(trimethoxysilyl) propyldimethyloctadecyl ammonium chloride]
- Log Kill (E. coli [1]; coconut shell activated carbon treated at 0.1 wt. % agent): None
- Log Kill (E. coli [1]; coconut shell activated carbon treated at 0.25 wt. % agent): 6.11
- (Wt.) % CTC ([2]; activated carbon treated at 0.1 wt. % agent): 77.6 (Wt.) %
- (Wt.) % CTC ([2]; activated carbon treated at 0.25 wt. % agent): 73.4 (Wt.) %
- (Wt.) % CTC ([2]; activated carbon treated at 0.5 wt. % agent): 75.4 (Wt.) %
- % Reduction, laundered (E. coli [3]; 0.010 % active in solution): 0%
- % Reduction, unlaundered (E. coli [3]; 0.010 % active in solution): 22%
- % Reduction, laundered (E. coli [3]; 0.025 % active in solution): 0%
- % Reduction, unlaundered (E. coli [3]; 0.025 % active in solution): 38%
- % Reduction, laundered (E. coli [3]; 0.050 % active in solution): 98.86%
- % Reduction, unlaundered (E. coli [3]; 0.050 % active in solution): 95%
- % Reduction, laundered (E. coli [3]; 0.075 % active in solution): 99.19%
- % Reduction, unlaundered (E. coli [3]; 0.075 % active in solution): 99.59%
- % Reduction, laundered (E. coli [3]; 0.100 % active in solution): 99.91%
- % Reduction, unlaundered (E. coli [3]; 0.100 % active in solution): 99.99%
- % Reduction, laundered (E. coli [3]; 0.25 % active in solution): 99.99%
- % Reduction, unlaundered (E. coli [3]; 0.25 % active in solution): 99.99%
- MIC (E. coli [4]): 0.98 µg/mL
